Measurements published in patent US5556777A, “Immunosuppressive pharmaceutical compositions new biological activity from a marine agrobacterium sp” (PharmaMar, s.a., priority 1993, dated 1996).
In brackets after ≈: the same amount, converted by molar mass.

How the values were obtained:
[1] = system: murine lymphocytes (Balb/c and C57BI/6, cocultured); assay: In vitro murine mixed lymphocyte reaction (MLR); type: cell-based; details: for MLR IC50: murine MLR, 96 h incubation, 15 h 3H-Thy pulse; for Index Cytotox./Activity: ratio LcV IC50 / MLR IC50
Procedure: The MLR is an in vitro test of cellular immunity in which murine lymphocytes from genetically dissimilar animals are cocultured to mutually induce cell proliferation (i.e., two-way MLR method). Mixed cell suspensions, together with the test compound, are incubated for 96 hours and subsequently pulsed for 15 hours with tritiated-thymidine (3H-Thy), a radioisotopically labelled nucleic acid. Tritiated-thymidine is incorporated into the DNA of proliferating cells. Data from the MLR is generated as dpm of radioactivity which is then expressed as a percentage of cellular activity, relative to control, using the following reduced formula: [formula]
A 50% inhibitory concentration (IC50) value was interpolated for sesbanimide containing fractions tested. A ratio between cytotoxicity, as determined from the LcV described below, and activity in the MLR is also presented. A high ratio distinguishes noncytotoxic immunosuppression from general cytotoxicity.
Reconstituted extract (10 μl) is added in two sets of duplicates into wells of a 96-well microtiter plate and evaporated to dryness at room temperature. […] To the other set of sample duplicates is added complete media without cells so as to provide for background color control data. All plated are incubated in a 5% CO2 incubator for 96 hours and pulsed for 15 hours with 100 μl containing 1 μCi/well tritiated-thymidine (^3 H-Thy). The plates are harvested onto glass fiber filter discs using an INOTECH harvester. The filter discs are counted directly using an INOTECH dry scintillation counter. The activity of the discs are calculated as a relative proliferative percent of a mean control value as described above.

leukemia = details: isolated from Sesbania drummondi; cited from earlier work
CD-1 or CB6F1 mice = assay: Toxicology (MTD, LD50) in CD-1 or CB6F1 mice; type: in vivo, mouse
Procedure: (§1) The MTD establishes the parameters to establish in vivo dosages initiated for studying the Graft-v-Host reaction and skin grafting. The Swiss conventional mouse (Charles River CD-1) is used in a weight range from 18-30 g.
(§2) Animals are injected with a single dose at four dose levels: e.g., 400 mg/kg, 100 mg/kg, 40 mg/kg, and 10 mg/kg in 0.5 ml of sterile vehicle (2 animals per dose, MTD). A saline solution containing 5% non-denatured EtOH and a drop of Tween-80 detergent is used a vehicle for dilution. Stirring and sonication are utilized to effect solution or suspension of the composition. The composition is injected within one hour of preparation. Animals are observed for five days (MTD) after injection for toxic symptoms and/or death. Group weights are taken D0 and D5. Surviving animals are sacrificed on D5 (MTD). A `Daily Logsheet` used in the toxicity studies is appended.

[2] = Toxicology (MTD, LD50) in CD-1 or CB6F1 mice; type: in vivo, mouse; details: mouse, in vivo, CD-1 or CB6F1 mice
Procedure: as §1, §2

Graft-v-Host Reaction = assay: In vivo Graft-v-Host reaction (GVHR), spleen index; set-up: species or system mouse
Procedure: Any sample that prevents splenomegaly (<graft index) is considered as an immunosuppressive active.
A standard of cyclophosphamide (200 mg/kg) is used. Experimental animals are sacrificed on D8 and spleens removed. […] Moribund animals are sacrificed immediately.

[3] = system: murine lymphocytes (Balb/c); assay: Lymphocyte viability / cytotoxicity assay (LcV), MTT; type: cell-based; details: murine lymphocytes, MTT viability (50% cytotoxicity)
Procedure: (§3) The LCV is a in vitro cytotoxicity assay for murine lymphocytes designed by the investigator. The LCV is similar to the MLR with the exception that only one cell population (Balb/c) is incubated with the test compound to assess cytotoxicity as distinct from the antiproliferative effects of a test compound. That is, unlike the unambiguous determination of immunostimulation from MLR data, a judgement of immunosuppression can not be immediately interpreted. Cytotoxicity (e.g., due to direct cell lysis) from a compound can occur which would alter viability determinations inherent in the generation of MLR data. […] The percent viable cells is determined by the MTT-thiazolyl blue method after a similar incubation to the MLR of lymphocytes with the test sample. MTT is a substrate converted by mitochondrial enzymes in living cells to a purple, water-insoluble, formazan crystal. If there is no significant reduction in cell viability, as determined by this detection method, then damaged cells are probably not present for low data values generated in the MLR. Colorimetric data from the LCV is calculated as a percentage of viability, relative to control, using the following formula: [formula]
(§4) A 50% viability, or 50% cytotoxicity, (IC50) value was interpolated for sesbanimide containing fractions tested.
(§5) Lymphocytes are prepared as described above for the MLR with the exception that cells from only one murine strain are prepared (BLAB/c). Reconstituted extract (10 μl) is added in two sets of duplicates into wells of a 96-well microtiter plate and evaporated to dryness at room temperature. Lymphocytes (2.5×10^6 cells/ml) are added to one set of duplicates and to wells containing no sample. Media containing no cells are added to the other set of duplicates to provide background color control data. Plated are incubated in a 5% CO2 incubator for 4 hours and pulsed with MTT-thiazolyl blue for 6-8 hours.

[4] = as above; type: cell-based, murine; details: mouse, lymphocytes; LcV; read-out: cytotoxicity IC50
Procedure: as §3, §4, §5

[5] = system: primary mixed lymphocyte cultures (MLRs) and alloreactive T cells; details: compared with cyclosporin A; cited from earlier work
[6] = system: Agrobacterium sp. strain PH-103; assay: Antibiotic sensitivity of strain PH-103 (sensitivity discs); type: cell-based; details: 27° C.
Procedure: 18. Antibiotic sensitivity--ATCC number 231 basal medium. Difco sensitivity discs
The culture was incubated at 27° C. and records of the results were made after suitable incubation times. All media were prepared with 2.7% Instant Ocean Salts and pH was approximately neutral (7-7.4). The description of the culture and test results are as follows: […]

## C=C1COC(O)(C2OCOC(C3CC(=O)NC(=O)C3)C2O)C1C (single isomer, unassigned) [Sesbanimide]
[1]; Table 4 data: trace amounts of an extract, major constituent, or pure compound
  immunosuppressive activity (in words): potent immunosuppressive activity
[1]; listed as ET 103/64-6:8
  MLR IC50: < 0.0075 µg/mL
  Index Cytotox./Activity: > 1,746
[1]; listed as ET 103/89-4
  MLR IC50: 0.00015 µg/mL
  Index Cytotox./Activity: 2,777
leukemia
  antineoplastic activity (in words): antineoplastic activity, particularly against leukemia
CD-1 or CB6F1 mice; CD-1 or CB6F1 mice
  LD50: 0.805 mg/kg
CD-1 or CB6F1 mice; pure compound, in vivo, 56, 10.5 and 5.6 mg/kg
  toxicity at 56, 10.5 and 5.6 mg/kg: toxic
CD-1 or CB6F1 mice; pure compound, in vivo, total dose ≤0.56 mg/kg
  toxicity at total doses equal to or lower than 0.56 mg/kg: no toxicity
[2]; at maximum tolerated dose, read-out: Alive Day 5
  survival at 120 h: 100%
[2]; read-out: Maximum Tolerated
  MTD at 120 h: 0.56 mg/kg
Graft-v-Host Reaction; Table 6 data
  immunosuppressive activity in GVHR (in words): potent immunosuppressive activity
Graft-v-Host Reaction; optimal dose 0.2 mg/kg, i.p. per diem 7 days
  Alive Day 8: 40%
Graft-v-Host Reaction; optimal dose 0.2 mg/kg, i.p. per diem 7 days, positive 1.34
  GVHR Index: 0.92
[3]; listed as ET 103/64-6:8
  LcV IC50: 13.100 µg/mL
[3]; listed as ET 103/89-4
  LcV IC50: 0.417 µg/mL
[4]
  CC50 at 4 h: 0.417 to 3.6 µg/mL (≈ 1.27 to 11 µM)

## O=P1(N(CCCl)CCCl)NCCCO1 (stereo not shown) [Cyclophosphamide, cyclophosphamide]
Graft-v-Host Reaction; 200.0 mg/kg, test 124-93
  Alive Day 8: 100%
Graft-v-Host Reaction; 200.0 mg/kg, test 124-93, positive 1.32
  GVHR Index: 0.23
Graft-v-Host Reaction; 200.0 mg/kg, test 811-93
  Alive Day 8: 60%
Graft-v-Host Reaction; 200.0 mg/kg, test 811-93, positive 1.34
  GVHR Index: 0.28

## C=CC[C@@H]1/C=C(\C)C[C@H](C)C[C@H](OC)[C@H]2O[C@@](O)(C(=O)C(=O)N3CCCC[C@H]3C(=O)O[C@H](/C(C)=C/[C@@H]3CC[C@@H](O)[C@H](OC)C3)[C@H](C)[C@@H](O)CC1=O)[C@H](C)C[C@@H]2OC [FK 506]
[5]
  potency relative to cyclosporin A (in words): more potent than cyclosporin A

## CCn1cc(C(=O)O)c(=O)c2ccc(C)nc21 [nalidixic acid]
[6]
  Antibiotic sensitivity of strain PH-103: Sensitive

## CN[C@H](CC(C)C)C(=O)N[C@H]1C(=O)N[C@@H](CC(N)=O)C(=O)N[C@H]2C(=O)N[C@H]3C(=O)N[C@H](C(=O)N[C@H](C(=O)O)c4cc(O)cc(O)c4-c4cc3ccc4O)[C@H](O)c3ccc(c(Cl)c3)Oc3cc2cc(c3O[C@@H]2O[C@H](CO)[C@@H](O)[C@H](O)[C@H]2O[C@H]2C[C@](C)(N)[C@H](O)[C@H](C)O2)Oc2ccc(cc2Cl)[C@H]1O [vancomycin]
[6]
  Antibiotic sensitivity of strain PH-103: resistant

## polymyxin
[6]
  Antibiotic sensitivity of strain PH-103: resistant
